Patent US6235284A, “Synthetic polypeptides belonging to the hepatitis C virus (HCV) and which can be used especially for detecting the latter” (Bio Merieux, priority 1992, dated 2001)

Legend:
[1] = test system: anti-HCV antibodies binding onto peptide S42G; assay: Inhibition test: inhibition of binding of anti-HCV antibodies onto peptide S42G by preincubation with peptides; design: species or system human; conditions: inhibitor 0.1 mg/ml
Method: To evaluate this hypothesis, inhibition tests, whose usefulness lies in the fact that they allow the formation of the antigen-antibody complex in liquid medium, were carried out, thus dispensing with possible artifacts linked to the adsorption of peptides onto a solid support.
The inhibition experiments were carried out by reaction, in liquid phase, of the HCV sera with the peptides followed by reaction of the remaining antibodies with the peptide adsorbed onto the microplates. The inhibitory peptides are incubated at a concentration of 0.1 mg/ml with sera of appropriate dilution. The rest of the manipulation is identical to that described for the ELISA test.
Peptide S18D (SEQ ID NO:11), or V22G (SEQ ID NO:12), or a mixture of both, is preincubated overnight in the presence of the serum to be tested. The antibodies can bind onto the corresponding sites.

[2] = test system: anti-HCV antibodies (HCV-positive sera); assay: ELISA detection of anti-HCV antibodies in HCV-positive sera with adsorbed peptides; type: binding, human
Method in brief: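 Peptides were adsorbed at 10 μg/ml for 2 h at 37 °C and blocked with 10% goat serum. Sera, first tested at 1/100, were incubated 1 h at 37 °C, detected with peroxidase anti-human IgG and OPD, and read at OD 492 nm (in places ×10^3), in duplicate.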

“V22G: a peptide of 24 amino acids covering sequence 22 to 45 of the CORE protein (VKFPGGGQIVGGVYLLPRRGPRLG)” was tested, and the inhibition ([1]; serum B4, 1/10,000) was 83.6%, the inhibition ([1]; serum P5, 1/10,000) was 83.0% and the inhibition ([1]; serum P7, 1/10,000) was 81.0%. The inhibition ([1]; serum P8, 1/10,000) was 77.4%, the inhibition ([1]; serum P18, 1/10,000) was 48.0% and the inhibition ([1]; serum P22, 1/10,000) was 65.5%. The inhibition ([1]; serum P25, 1/10,000) was 71.8%, the inhibition ([1]; serum P31, 1/10,000) was 39.9% and the inhibition ([1]; serum P37, 1/10,000) was 88.7%. The inhibition ([1]; serum P38, 1/10,000) was 70.3%, the “optical density at 492 nm” value ([2]; Table 2, line 68, serum not named (below CTS), 1/100) was 2.500 OD and the “optical density at 492 nm” value ([2]; Table 2, line 69, serum not named (below CTS), 1/1000) was 1.605 OD. The “optical density at 492 nm” value ([2]; Table 2, line 70, serum not named (below CTS), 1/10000) was 0.255 OD, the “optical density at 492 nm” value ([2]; Table 2, line 75, serum B4, 1/1000) was 1.214 OD and the “optical density at 492 nm” value ([2]; Table 2, line 76, serum B4, 1/1000 (so in the source)) was 0.144 OD. For the same substance, the “optical density at 492 nm” value ([2]; Table 2, serum B1, 1/100) was 1.225 OD, the “optical density at 492 nm” value ([2]; Table 2, serum B2, 1/100) was 0.756 OD and the “optical density at 492 nm” value ([2]; Table 2, serum B3, 1/100) was 0.329 OD. For the same substance, the “optical density at 492 nm” value ([2]; Table 2, serum B4, 1/100) was 2.500 OD, the “optical density at 492 nm” value ([2]; Table 2, serum B5, 1/100) was 0.863 OD and the “optical density at 492 nm” value ([2]; Table 2, serum B6, 1/100) was 0.749 OD. For the same substance, the “optical density at 492 nm” value ([2]; Table 2, serum B7, 1/100) was 2.102 OD, the “optical density at 492 nm” value ([2]; Table 2, serum B8, 1/100) was 0.358 OD and the “optical density at 492 nm” value ([2]; Table 2, serum B9, 1/100) was 2.082 OD. The “optical density at 492 nm” value ([2]; Table 2, serum B10, 1/100) was 0.225 OD, the “optical density at 492 nm” value ([2]; Table 2, serum B11, 1/100) was 0.616 OD and the “optical density at 492 nm” value ([2]; Table 2, serum B12, 1/100) was 1.017 OD. The “optical density at 492 nm” value ([2]; Table 2, serum B13, 1/100) was 0.304 OD, the “optical density at 492 nm” value ([2]; Table 2, serum B14, 1/100) was 0.186 OD and the “optical density at 492 nm” value ([2]; Table 2, serum B15, 1/100) was 0.954 OD. The “optical density at 492 nm” value ([2]; Table 2, serum B16, 1/100) was 2.500 OD, the “optical density at 492 nm” value ([2]; Table 2, serum CTS, 1/100) was 2.500 OD and the “optical density at 492 nm” value ([2]; Table 2, serum CTS, 1/1000) was 1.155 OD. The “optical density at 492 nm” value ([2]; Table 2, serum CTS, 1/10000) was 0.043 OD, the “optical density at 492 nm” value ([2]; Table 2, serum P1, 1/100) was 0.426 OD and the “optical density at 492 nm” value ([2]; Table 2, serum P2, 1/100) was 0.290 OD. The “optical density at 492 nm” value ([2]; Table 2, serum P3, 1/100) was 0.503 OD, the “optical density at 492 nm” value ([2]; Table 2, serum P4, 1/100) was 1.739 OD and the “optical density at 492 nm” value ([2]; Table 2, serum P5, 1/100) was 2.500 OD. The “optical density at 492 nm” value ([2]; Table 2, serum P5, 1/1000) was 2.293 OD, the “optical density at 492 nm” value ([2]; Table 2, serum P5, 1/10000) was 0.578 OD and the “optical density at 492 nm” value ([2]; Table 2, serum P6, 1/100) was 0.000 OD. For the same substance, the “optical density at 492 nm” value ([2]; Table 2, serum P7, 1/100) was 2.500 OD, the “optical density at 492 nm” value ([2]; Table 2, serum P7, 1/1000) was 1.590 OD and the “optical density at 492 nm” value ([2]; Table 2, serum P7, 1/10000) was 0.237 OD. The “optical density at 492 nm” value ([2]; Table 2, serum P8, 1/100) was 2.241 OD, the “optical density at 492 nm” value ([2]; Table 2, serum P8, 1/1000) was 0.476 OD and the “optical density at 492 nm” value ([2]; Table 2, serum P8, 1/10000) was 0.049 OD. The “optical density at 492 nm” value ([2]; Table 2, serum P9, 1/100) was 0.008 OD, the “optical density at 492 nm” value ([2]; Table 2, serum P10, 1/100) was 0.026 OD and the “optical density at 492 nm” value ([2]; Table 2, serum P11, 1/100) was 2.500 OD. For the same substance, the “optical density at 492 nm” value ([2]; Table 2, serum P12, 1/100) was 2.500 OD, the “optical density at 492 nm” value ([2]; Table 2, serum P12, 1/1000) was 2.500 OD and the “optical density at 492 nm” value ([2]; Table 2, serum P12, 1/10000) was 0.106 OD. The “optical density at 492 nm” value ([2]; Table 2, serum P13, 1/100) was 0.013 OD, the “optical density at 492 nm” value ([2]; Table 2, serum P14, 1/100) was 1.778 OD and the “optical density at 492 nm” value ([2]; Table 2, serum P15, 1/100) was 1.810 OD. For the same substance, the “optical density at 492 nm” value ([2]; Table 2, serum P16, 1/100) was 2.500 OD, the “optical density at 492 nm” value ([2]; Table 2, serum P17, 1/100) was 1.832 OD and the “optical density at 492 nm” value ([2]; Table 2, serum P18, 1/100) was 2.500 OD. For the same substance, the “optical density at 492 nm” value ([2]; Table 2, serum P18, 1/1000) was 0.598 OD, the “optical density at 492 nm” value ([2]; Table 2, serum P18, 1/10000) was 0.072 OD and the “optical density at 492 nm” value ([2]; Table 2, serum P19, 1/100) was 0.010 OD. The “optical density at 492 nm” value ([2]; Table 2, serum P20, 1/100) was 2.249 OD, the “optical density at 492 nm” value ([2]; Table 2, serum P21, 1/100) was 2.272 OD and the “optical density at 492 nm” value ([2]; Table 2, serum P22, 1/100) was 2.500 OD. The “optical density at 492 nm” value ([2]; Table 2, serum P22, 1/1000) was 0.702 OD, the “optical density at 492 nm” value ([2]; Table 2, serum P22, 1/10000) was 0.088 OD and the “optical density at 492 nm” value ([2]; Table 2, serum P23, 1/100) was 0.015 OD. The “optical density at 492 nm” value ([2]; Table 2, serum P24, 1/100) was 0.579 OD, the “optical density at 492 nm” value ([2]; Table 2, serum P25, 1/100) was 2.252 OD and the “optical density at 492 nm” value ([2]; Table 2, serum P25, 1/1000) was 0.695 OD. For the same substance, the “optical density at 492 nm” value ([2]; Table 2, serum P25, 1/10000) was 0.089 OD, the “optical density at 492 nm” value ([2]; Table 2, serum P26, 1/100) was 2.500 OD and the “optical density at 492 nm” value ([2]; Table 2, serum P26, 1/1000) was 1.541 OD. For the same substance, the “optical density at 492 nm” value ([2]; Table 2, serum P26, 1/10000) was 0.199 OD, the “optical density at 492 nm” value ([2]; Table 2, serum P27, 1/100) was 1.600 OD and the “optical density at 492 nm” value ([2]; Table 2, serum P28, 1/100) was 2.500 OD. For the same substance, the “optical density at 492 nm” value ([2]; Table 2, serum P29, 1/100) was 0.005 OD, the “optical density at 492 nm” value ([2]; Table 2, serum P30, 1/100) was 2.500 OD and the “optical density at 492 nm” value ([2]; Table 2, serum P31, 1/100) was 2.500 OD. The “optical density at 492 nm” value ([2]; Table 2, serum P31, 1/1000) was 2.500 OD, the “optical density at 492 nm” value ([2]; Table 2, serum P31, 1/10000) was 0.847 OD and the “optical density at 492 nm” value ([2]; Table 2, serum P32, 1/100) was 1.639 OD. For the same substance, the “optical density at 492 nm” value ([2]; Table 2, serum P33, 1/100) was 1.987 OD, the “optical density at 492 nm” value ([2]; Table 2, serum P34, 1/100) was 1.618 OD and the “optical density at 492 nm” value ([2]; Table 2, serum P35, 1/100) was 1.504 OD. For the same substance, the “optical density at 492 nm” value ([2]; Table 2, serum P36, 1/100) was 1.226 OD, the “optical density at 492 nm” value ([2]; Table 2, serum P37, 1/100) was 2.500 OD and the “optical density at 492 nm” value ([2]; Table 2, serum P37, 1/1000) was 0.865 OD. For the same substance, the “optical density at 492 nm” value ([2]; Table 2, serum P37, 1/10000) was 0.128 OD, the “optical density at 492 nm” value ([2]; Table 2, serum P38, 1/100) was 2.500 OD and the “optical density at 492 nm” value ([2]; Table 2, serum P38, 1/1000) was 1.582 OD. The “optical density at 492 nm” value ([2]; Table 2, serum P38, 1/10000) was 0.057 OD, the “optical density at 492 nm” value ([2]; Table 2, serum P39, 1/100) was 1.835 OD and the “optical density at 492 nm” value ([2]; Table 2, serum P40, 1/100) was 2.500 OD. For the same substance, the “optical density at 492 nm” value ([2]; Table 2, serum P41, 1/100) was 2.218 OD, the “optical density at 492 nm” value ([2]; Table 2, serum P42, 1/100) was 0.000 OD and the “reactivity towards HCV-positive sera” value ([2]; in words) was “carry one or more epitopes”.
